The subject of series [1] is EAE mice. Description: EAE (MOG35-55) clinical disease, GSNO vs FeTPPS. It counts as in vivo, C57BL/6J mice. The conditions noted are these: GSNO 1 mg/kg/i.p./day or FeTPPS 30 mg/kg/i.p./day from disease onset (day 13). How it is done: EAE was induced as described previously (Nath et al., 2009). Animal procedures were approved by the institutional animal care and use committee of MUSC (AR #1644). Briefly, female C57BL/6J mice of 8-12 weeks of age weighing 18-22 g (The Jackson Laboratory, Bar Harbor, Me., USA) were randomly divided into four groups: 1) EAE animals treated with vehicle (EAE; n=8), 2) EAE with GSNO (1 mg/kg body weight per day; i.p.) treatment (EAE+GSNO; n=12), 3) EAE with FeTPPS (30 mg/kg body weight per day; i.p.) treatment (EAE+FeTPPS; n=8), 4) control with vehicle (Ctrl; n=8). The group size was determined by power analysis based on our previous data (Nadi et al., 2009). Then, the mice were immunized subcutaneously in the flank regions with MOG35-55 peptide (MOG; 200 ug; Peptide International) emulsified (1:1) in 100 ul complete Freund's adjuvant (CFA) CHI day 0 and day 7. […] Clinical signs of EAE were scored in animal facility in a blinded fashion to experimenter between 2 and 4 pm daily by examiners blinded to experimental treatments using the following scale: 0=no clinical signs of disease; 1=limp tail or waddling gait with tail tonicity; 2=waddling gait with limp tail (ataxia); 2.5=ataxia with partial limb paralysis; 3=full paralysis of one limb; 3.5=full paralysis of one limb with partial paralysis of second limb; 4=full paralysis of two limbs; 4.5=moribund stage; 5=death. […]

Series [2] relates to lymphocytes in blood. Description: Total lymphocyte count in blood of normal mice (lymphopenic effect). Format: in vivo, C57BL/6 mice. The conditions noted are these: normal mice without EAE, 1 mg/kg/day for 19 days. The method, then: The bloods collected in EDTA blood collection tubes (BD Biosciences) were analyzed by an automated hematology analyzer for counting total lymphocytes. For counting of each subset of lymphocytes, 50 μl of blood was mixed with staining buffer (20 μl) containing fluorescence labelled antibodies and red-blood-cells were lysed with FACS lysing solution (BD Biosciences) prior to fluorescence flow-cytometric analysis. For staining of CD3+, CD4+, and CD8+ cells, allophycocvanin (APC)-labeled anti-mouse CD3 (eBioscience clone 17A2), Fluorescein isothiocyanate (FITC)-labeled anti-mouse CD4 (eBioscience clone RM4-5), APC-labeled anti-mouse CD8 (eBioscience clone 53-6.7) and appropriate isotype matched controls.

Series [3] deals with protein associated S-nitrosothiols. Description: Biotin-switch analysis of protein associated S-nitrosothiols in spleens of EAE mice. Format: in vivo, C57BL/6 mice. The settings on record: vs control and EAE mice. How it is done:
Female C57BL/6 mice of 8-12 weeks of age, purchased from Jackson Laboratory, were provided with food and water ad libitum and were kept in pathogen free animal care facility of Medical University of South Carolina (MUSC) throughout the study. All procedures were conducted in accordance with accepted standards of humane care as approved by the Institutional Animal Care and Use Committee (Approved number: AR #1644). EAE was induced as described previously (Nath et al., 2009). Briefly, mice were immunized subcutaneously in the flank regions with MOG35-55 peptide (MOG; 200 μg; Peptide International) emulsified (1:1) in 100 ul complete Freund's adjuvant (CFA) on day 0 and day 7. Additionally, 300 ng of Pertussis toxin (Sigma-Aldrich, St. Louis, Mo.) was given on day 0 and day 2 by i.p. injection. […] Clinical signs of EAE were scored by examiners blinded to experimental treatments using the following scale: 0=no clinical signs of disease; 1=piloerection and sluggish; 2=limp tail (ataxia); 2.5=ataxia with partial hind limb paralysis; 3=full paralysis of hind limb; 3.5=full paralysis of hind limb with paralysis of one fore limb; 4=full paralysis of two limbs; 4.5=moribund stage; 5=death. […]
Protein S-Nitrosylation was detected using the biotin-switch method with slight modification as described in our previous study (Kim et al., 2014). […]

Consider `Cl.O=S(=O)([O-])c1ccc(-c2c3nc(c(-c4ccc(S(=O)(=O)O)cc4)c4ccc([nH]4)c(-c4ccc(S(=O)(=O)O)cc4)c4nc(c(-c5ccc(S(=O)(=O)O)cc5)c5ccc2[nH]5)C=C4)C=C3)cc1.[Fe]` [FeTPPS, 5,10,15,20-Tetrakis(4-sulfonatophenyl)porphyrinato Iron (III), Cl, reference compound], for which the “efficacy against clinical disease of EAE” value in series [1] was “significant efficacy but to a lower degree than GSNO treatment”.

In the case of `Cc1cc(C(N)=O)ccc1-n1c(CCC(=O)O)ccc1-c1ccc(-n2ccnc2)cc1` [N6022, reference compound], in series [2], the “numbers of total lymphocytes, CD3+ T cells, CD4+ T cells and CD8+ cells in blood” value was “did not affect”. Also, in series [3], the “spleen levels of protein-associated S-nitrosothiols” value is “increased”.

On to `N[C@@H](CCC(=O)N[C@@H](CSN=O)C(=O)NCC(=O)O)C(=O)O` [GSNO, S-nitrosoglutathione], for which the “efficacy against clinical disease of EAE” value in series [1] is “great efficacy”. For the same molecule, the “numbers of total lymphocytes, CD3+ T cells, CD4+ T cells and CD8+ cells in blood” value in series [2] is reported as “no obvious effect”. The “spleen levels of protein-associated S-nitrosothiols” value in series [3] was “increased”.

(Values after patent US10925858B2, “S-nitrosoglutathione (GSNO) and GSNO reductase inhibitors for use in therapy” (MUSC FOUNDATION FOR RESEARCH DEVELOPMENT, priority 2017, dated 2021).)
